{"source": "patent US10131648B2", "about": "“Substituted benzothiophenyl derivatives as GPR40 agonists for the treatment of type II diabetes” (Janssen Pharmaceutica NV, priority 2014, dated 2018)", "note": "Where “and” joins values, the source holds several entries; their conditions need not be identical. Equal values may be shown once.", "data": [{"molecular_target": "human GPR40 (Homo sapiens (Human), UniProt O14842)", "sequence (O14842 whole entry)": "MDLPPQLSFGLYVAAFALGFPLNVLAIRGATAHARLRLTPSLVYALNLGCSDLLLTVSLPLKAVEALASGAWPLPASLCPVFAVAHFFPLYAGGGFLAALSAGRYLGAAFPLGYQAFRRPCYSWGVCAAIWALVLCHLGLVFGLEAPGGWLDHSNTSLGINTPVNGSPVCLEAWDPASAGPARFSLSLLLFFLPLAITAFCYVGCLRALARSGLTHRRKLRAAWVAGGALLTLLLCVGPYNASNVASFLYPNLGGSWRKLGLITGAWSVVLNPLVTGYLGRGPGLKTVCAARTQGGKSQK", "assay": "GPR40 Calcium Flux Assay", "type": "cell-based", "conditions": "transfected HEK293 cells stably expressing human GPR40; Ca2+ mobilization; mean data; read-out: hGPR40 Ca^2+ Assay EC50", "values": [{"smiles": "CC#C[C@@H](CC(=O)O)c1ccc(COc2ccc3scc(-c4ccc(OCC5CCS(=O)(=O)CC5)cc4C)c3c2)cc1", "note": "[Cpd 59, (3S)-3-{4-[((3-{4-[(1,1-Dioxo-tetrahydro-2H-thiopyran-4-yl)methoxy]-2-methylphenyl}-1-benzothiophen-5-yl)oxy)methyl]phenyl}hex-4-ynoic acid]", "EC50": "0.014 µM"}, {"smiles": "CC#C[C@@H](CC(=O)O)c1ccc(COc2ccc3scc(-c4ccc(OCC5(C)CS(=O)(=O)C5)cc4C)c3c2)cc1", "note": "[Cpd 60, (3S)-3-(4-(((3-(2-Methyl-4-((3-methyl-1,1-dioxidothietan-3-yl)methoxy)phenyl)benzo[b]thiophen-5-yl)oxy)methyl)phenyl)hex-4-ynoic acid]", "EC50": "0.07 µM"}, {"smiles": "CC#CC(CC(=O)O)c1ccc(OCc2ccc3scc(-c4ccc(OCCC(C)(C)O)cc4C)c3c2)nc1", "note": "(stereo not shown) [Cpd 61]", "EC50": "0.016 µM"}, {"smiles": "CC#CC(CC(=O)O)c1ccc(OCc2ccc3scc(-c4ccc(OCC(O)CO)cc4C)c3c2)nc1", "note": "(stereo not shown) [Cpd 62, 3-(6-((3-(4-(2,3-Dihydroxypropoxy)-2-methylphenyl)benzo[b]thiophen-5-yl)methoxy)pyridin-3-yl)hex-4-ynoic acid]", "EC50": "0.01 µM"}, {"smiles": "CC#CC(CC(=O)O)c1ccc(OCc2ccc3scc(-c4ccc(OCC5CCS(=O)(=O)CC5)cc4C)c3c2)nc1", "note": "(stereo not shown) [Cpd 63, 3-(6-((3-(4-((1,1-Dioxidotetrahydro-2H-thiopyran-4-yl)methoxy)-2-methylphenyl)benzo[b]thiophen-5-yl)methoxy)pyridin-3-yl)hex-4-ynoic acid]", "EC50": "0.01 µM"}, {"smiles": "CC#CC(CC(=O)O)c1ccc(OCc2ccc3scc(-c4ccc(OCC5(C)CS(=O)(=O)C5)cc4C)c3c2)nc1", "note": "(stereo not shown) [Cpd 64, 3-(6-((3-(2-Methyl-4-((3-methyl-1,1-dioxidothietan-3-yl)methoxy)phenyl)benzo[b]thiophen-5-yl)methoxy)pyridin-3-yl)hex-4-ynoic acid]", "EC50": "0.021 µM"}, {"smiles": "CC#C[C@@H](CC(=O)O)c1ccc(OCc2ccc3scc(-c4cc(OCCOC)ccc4C)c3c2)cc1", "note": "[Cpd 65, (3S)-3-[4-([3-[5-(2-Methoxyethoxy)-2-methylphenyl]-1-benzothiophen-5-yl]methoxy)phenyl]hex-4-ynoic acid]", "EC50": "0.011 µM"}, {"smiles": "CC#C[C@@H](CC(=O)O)c1ccc(OCc2ccc3scc(-c4c(C)cccc4OCCOC)c3c2)cc1", "note": "[Cpd 66, (3S)-3-[4-([3-[2-(2-Methoxyethoxy)-6-methylphenyl]-1-benzothiophen-5-yl]methoxy)phenyl]hex-4-ynoic acid]", "EC50": "0.014 µM"}, {"smiles": "CC#C[C@@H](CC(=O)O)c1ccc(OCc2ccc3scc(-c4cccc(OCCOC)c4C)c3c2)cc1", "note": "[Cpd 67, (3S)-3-[4-([3-[3-(2-Methoxyethoxy)-2-methylphenyl]-1-benzothiophen-5-yl]methoxy)phenyl]hex-4-ynoic acid]", "EC50": "0.009 µM"}, {"smiles": "CC#C[C@@H](CC(=O)O)c1ccc(OCc2ccc3scc(-c4ccccc4OCCOC)c3c2)cc1", "note": "[Cpd 68, (3S)-3-[4-([3-[2-(2-Methoxyethoxy)phenyl]-1-benzothiophen-5-yl]methoxy)phenyl]hex-4-ynoic acid]", "EC50": "0.019 µM"}, {"smiles": "CC#C[C@H](CC(=O)O)c1ccc(OCc2ccc3scc(-c4ccc(OCCC(C)(C)O)cc4C)c3c2)nc1", "note": "[Cpd 70, (3S)-3-(6-((3-(4-(3-Hydroxy-3-methylbutoxy)-2-methylphenyl)benzo[b]thiophen-5-yl)methoxy)pyridin-3-yl)hex-4-ynoic acid]", "EC50": "0.5 µM"}, {"smiles": "CC#C[C@@H](CC(=O)O)c1ccc(OCc2ccc3scc(-c4ccc(OCCC(C)(C)O)cc4C)c3c2)nc1", "note": "[Cpd 71, (3R)-3-(6-((3-(4-(3-Hydroxy-3-methylbutoxy)-2-methylphenyl)benzo[b]thiophen-5-yl)methoxy)pyridin-3-yl)hex-4-ynoic acid]", "EC50": "0.012 µM"}, {"smiles": "CC#C[C@H](CC(=O)O)c1ccc(OCc2ccc3scc(-c4ccc(OCC5CCOCC5)cc4C)c3c2)nc1", "note": "[Cpd 72, (3S)-3-(6-((3-(2-Methyl-4-((tetrahydro-2H-pyran-4-yl)methoxy)phenyl)benzo[b]thiophen-5-yl)methoxy)pyridin-3-yl)hex-4-ynoic acid]", "EC50": "1.33 µM"}, {"smiles": "CC#C[C@@H](CC(=O)O)c1ccc(OCc2ccc3scc(-c4ccc(OCC5CCOCC5)cc4C)c3c2)nc1", "note": "[Cpd 73, (3R)-3-(6-((3-(2-Methyl-4-((tetrahydro-2H-pyran-4-yl)methoxy)phenyl)benzo[b]thiophen-5-yl)methoxy)pyridin-3-yl)hex-4-ynoic acid]", "EC50": "0.013 µM"}, {"smiles": "CC#C[C@H](CC(=O)O)c1ccc(OCc2ccc3scc(-c4ccc(OCC5CCS(=O)(=O)CC5)cc4C)c3c2)nc1", "note": "[Cpd 74, (3S)-3-(6-((3-(4-((1,1-Dioxidotetrahydro-2H-thiopyran-4-yl)methoxy)-2-methylphenyl)benzo[b]thiophen-5-yl)methoxy)pyridin-3-yl)hex-4-ynoic acid]", "EC50": "0.18 µM"}, {"smiles": "CC#C[C@@H](CC(=O)O)c1ccc(OCc2ccc3scc(-c4ccc(OCC5CCS(=O)(=O)CC5)cc4C)c3c2)nc1", "note": "[Cpd 75, (3R)-3-(6-((3-(4-((1,1-Dioxidotetrahydro-2H-thiopyran-4-yl)methoxy)-2-methylphenyl)benzo[b]thiophen-5-yl)methoxy)pyridin-3-yl)hex-4-ynoic acid]", "EC50": "0.007 µM"}, {"smiles": "CC#C[C@H](CC(=O)O)c1ccc(OCc2ccc3scc(-c4ccc(OCCOC)cc4C)c3c2)nc1", "note": "[Cpd 76, (3S)-3-(6-((3-(4-(2-Methoxyethoxy)-2-methylphenyl)benzo[b]thiophen-5-yl)methoxy)pyridin-3-yl)hex-4-ynoic acid]", "EC50": "0.83 µM"}, {"smiles": "CC#C[C@@H](CC(=O)O)c1ccc(OCc2ccc3scc(-c4ccc(OCCOC)cc4C)c3c2)nc1", "note": "[Cpd 77, (3R)-3-(6-((3-(4-(2-Methoxyethoxy)-2-methylphenyl)benzo[b]thiophen-5-yl)methoxy)pyridin-3-yl)hex-4-ynoic acid]", "EC50": "0.016 µM and 0.006 µM and 0.005 µM"}, {"smiles": "CC#C[C@@H](CC(=O)O)c1ccc(OCc2ccc3scc(-c4cccnc4OC)c3c2)cc1", "note": "[Cpd 78, (3S)-3-(4-((3-(2-Methoxypyridin-3-yl)benzo[b]thiophen-5-yl)methoxy)phenyl)hex-4-ynoic acid]", "EC50": "0.009 µM"}, {"smiles": "CC#C[C@@H](CC(=O)O)c1ccc(OCc2ccc3scc(-c4ccccc4OC)c3c2)cc1", "note": "[Cpd 79, (3S)-3-(4-((3-(2-Methoxyphenyl)benzo[b]thiophen-5-yl)methoxy)phenyl)hex-4-ynoic acid]", "EC50": "0.028 µM"}, {"smiles": "CC#C[C@@H](CC(=O)O)c1ccc(OCc2ccc3scc(-c4ccc(OC)nc4C)c3c2)cc1", "note": "[Cpd 80, (3S)-3-(4-((3-(6-Methoxy-2-methylpyridin-3-yl)benzo[b]thiophen-5-yl)methoxy)phenyl)hex-4-ynoic acid]", "EC50": "0.02 µM"}, {"smiles": "CC#C[C@@H](CC(=O)O)c1ccc(OCc2ccc3scc(-c4cnccc4OC)c3c2)cc1", "note": "[Cpd 81, (3S)-3-(4-((3-(4-Methoxypyridin-3-yl)benzo[b]thiophen-5-yl)methoxy)phenyl)hex-4-ynoic acid]", "EC50": "0.011 µM"}, {"smiles": "CC#C[C@@H](CC(=O)O)c1ccc(OCc2ccc3scc(-c4cnc(OC)cc4C)c3c2)cc1", "note": "[Cpd 82, (3S)-3-(4-((3-(6-Methoxy-4-methylpyridin-3-yl)benzo[b]thiophen-5-yl)methoxy)phenyl)hex-4-ynoic acid]", "EC50": "0.037 µM"}, {"smiles": "CC#C[C@@H](CC(=O)O)c1ccc(OCc2ccc3scc(-c4ccncc4OC)c3c2)cc1", "note": "[Cpd 83, (3S)-3-(4-((3-(3-Methoxypyridin-4-yl)benzo[b]thiophen-5-yl)methoxy)phenyl)hex-4-ynoic acid]", "EC50": "0.01 µM"}, {"smiles": "CC#C[C@@H](CC(=O)O)c1ccc(OCc2ccc3scc(-c4ncc(OC)cc4C)c3c2)cc1", "note": "[Cpd 84, (3S)-3-(4-((3-(5-Methoxy-3-methylpyridin-2-yl)benzo[b]thiophen-5-yl)methoxy)phenyl)hex-4-ynoic acid]", "EC50": "0.052 µM"}, {"smiles": "CC#C[C@@H](CC(=O)O)c1ccc(OCc2ccc3scc(-c4ccccc4C)c3c2)nc1", "note": "[Cpd 85, (3R)-3-[6-[[3-(2-Methylphenyl)benzo[b]thiophen-5-yl]methoxy]pyridin-3-yl]hex-4-ynoic acid]", "EC50": "0.007 µM and 0.006 µM"}, {"smiles": "CC#C[C@@H](CC(=O)O)c1ccc(COc2ccc3scc(-c4ccc(OC5CCOC5)cc4C)c3c2)cc1", "note": "(stereo partly drawn) [Cpd 86, (3S)-3-[4-[([3-[2-Methyl-4-(tetrahydrofuran-3-yloxy)phenyl]-1-benzothiophen-5-yl]oxy)methyl]phenyl]hex-4-ynoic acid]", "EC50": "0.008 µM"}, {"smiles": "CC#C[C@@H](CC(=O)O)c1ccc(OCc2ccc3scc(-c4cc(OCCOC)ccc4C)c3c2)nc1", "note": "[Cpd 87, (3R)-3-(6-((3-(5-(2-Methoxyethoxy)-2-methylphenyl)benzo[b]thiophen-5-yl)methoxy)pyridin-3-yl)hex-4-ynoic acid]", "EC50": "0.011 µM"}, {"smiles": "CC#C[C@@H](CC(=O)O)c1ccc(OCc2ccc3scc(-c4cccc(OCCOC)c4C)c3c2)nc1", "note": "[Cpd 88, (3R)-3-(6-((3-(3-(2-Methoxyethoxy)-2-methylphenyl)benzo[b]thiophen-5-yl)methoxy)pyridin-3-yl)hex-4-ynoic acid]", "EC50": "0.008 µM"}, {"smiles": "CC#C[C@@H](CC(=O)O)c1ccc(OCc2ccc3scc(-c4ncc(OCCOC)cc4C)c3c2)nc1", "note": "[Cpd 89, (3R)-3-(6-((3-(5-(2-Methoxyethoxy)-3-methylpyridin-2-yl)benzo[b]thiophen-5-yl)methoxy)pyridin-3-yl)hex-4-ynoic acid]", "EC50": "0.02 µM"}, {"smiles": "CC#C[C@@H](CC(=O)O)c1ccc(OCc2ccc3scc(-c4cc(Cl)ncc4C)c3c2)nc1", "note": "[Cpd 90, (3R)-3-(6-((3-(2-Chloro-5-methylpyridin-4-yl)benzo[b]thiophen-5-yl)methoxy)pyridin-3-yl)hex-4-ynoic acid]", "EC50": "0.015 µM"}, {"smiles": "CC#C[C@@H](CC(=O)O)c1ccc(OCc2ccc3scc(-c4ncccc4OC)c3c2)cc1", "note": "[Cpd 91, (3S)-3-(4-((3-(3-Methoxypyridin-2-yl)benzo[b]thiophen-5-yl)methoxy)phenyl)hex-4-ynoic acid]", "EC50": "0.017 µM"}, {"smiles": "CC#C[C@@H](CC(=O)O)c1ccc(OCc2ccc3scc(-c4cc(OCCOC)cnc4C)c3c2)nc1", "note": "[Cpd 92, (3R)-3-(6-((3-(5-(2-Methoxyethoxy)-2-methylpyridin-3-yl)benzo[b]thiophen-5-yl)methoxy)pyridine-3-yl)hex-4-ynoic acid]", "EC50": "0.013 µM"}, {"smiles": "CC#C[C@@H](CC(=O)O)c1ccc(OCc2ccc3scc(-c4nc(Cl)ccc4C)c3c2)cc1", "note": "[Cpd 93, (3S)-3-(4-((3-(6-Chloro-3-methylpyridin-2-yl)benzo[b]thiophen-5-yl)methoxy)phenyl)hex-4-ynoic acid]", "EC50": "0.015 µM"}]}]}
